Results from PubChem BioAssay (NCI).
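A five-concentration, 48-hour dose response in 96-well plates underlies each endpoint, interpolated linearly between surrounding concentrations. The concentration for 50% growth inhibition is given as GI50. TGI: total growth inhibition.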

Experiments:
Experiment in all cases: DTP human tumour cell line panel, 48 h; in the data active = GI50 below about 0.43 µM; inactive = the rest
786-0 renal = system: 786-0 renal
A498 renal = system: A498 renal
A549 NSCLC = system: A549 NSCLC
ACHN renal = system: ACHN renal
BT-549 breast = system: BT-549 breast
CAKI-1 renal = system: CAKI-1 renal
CCRF-CEM leukemia = system: CCRF-CEM leukemia
COLO 205 colon = system: COLO 205 colon
DU-145 prostate = system: DU-145 prostate
EKVX NSCLC = system: EKVX NSCLC
HCC-2998 colon = system: HCC-2998 colon
HCT-116 colon = system: HCT-116 colon
HCT-15 colon = system: HCT-15 colon
HL-60(TB) leukemia = system: HL-60(TB) leukemia
HOP-62 NSCLC = system: HOP-62 NSCLC
HOP-92 NSCLC = system: HOP-92 NSCLC
HS 578T breast = system: HS 578T breast
HT29 colon = system: HT29 colon
IGROV1 ovarian = system: IGROV1 ovarian
K-562 leukemia = system: K-562 leukemia
KM12 colon = system: KM12 colon
LOX IMVI melanoma = system: LOX IMVI melanoma
M14 melanoma = system: M14 melanoma
MALME-3M melanoma = system: MALME-3M melanoma
MCF7 breast = system: MCF7 breast
MDA-MB-231 breast = system: MDA-MB-231 breast
MDA-MB-435 = system: MDA-MB-435
MOLT-4 leukemia = system: MOLT-4 leukemia
NCI-H226 lung = system: NCI-H226 lung
NCI-H23 lung = system: NCI-H23 lung
NCI-H460 lung = system: NCI-H460 lung
NCI-H522 lung = system: NCI-H522 lung
NCI/ADR-RES ovarian = system: NCI/ADR-RES ovarian
OVCAR-3 ovarian = system: OVCAR-3 ovarian
OVCAR-4 ovarian = system: OVCAR-4 ovarian
OVCAR-5 ovarian = system: OVCAR-5 ovarian
OVCAR-8 ovarian = system: OVCAR-8 ovarian
PC-3 prostate = system: PC-3 prostate
RPMI-8226 leukemia = system: RPMI-8226 leukemia
RXF 393 renal = system: RXF 393 renal
SF-268 CNS = system: SF-268 CNS
SF-295 CNS = system: SF-295 CNS
SF-539 CNS = system: SF-539 CNS
SK-MEL-2 melanoma = system: SK-MEL-2 melanoma
SK-MEL-28 melanoma = system: SK-MEL-28 melanoma
SK-MEL-5 melanoma = system: SK-MEL-5 melanoma
SK-OV-3 ovarian = system: SK-OV-3 ovarian
SN12C renal = system: SN12C renal
SNB-19 CNS = system: SNB-19 CNS
SNB-75 CNS = system: SNB-75 CNS
SR leukemia = system: SR leukemia
SW-620 colon = system: SW-620 colon
T-47D breast = system: T-47D breast
TK-10 renal = system: TK-10 renal
U251 CNS = system: U251 CNS
UACC-257 melanoma = system: UACC-257 melanoma
UACC-62 melanoma = system: UACC-62 melanoma
UO-31 renal = system: UO-31 renal

Cn1cc(-c2csc(-c3c[nH]c4ccccc34)n2)c2cccnc21
inactive: GI50 (786-0 renal) 2.66 µM | GI50 (A498 renal) 0.688 µM | GI50 (A549 NSCLC) 0.656 µM | GI50 (ACHN renal) 0.97 µM | GI50 (BT-549 breast) 1.16 µM | GI50 (CCRF-CEM leukemia) 0.534 µM | GI50 (COLO 205 colon) 0.431 µM | GI50 (DU-145 prostate) 1.05 µM | GI50 (EKVX NSCLC) 0.636 µM | GI50 (HCC-2998 colon) 1.27 µM | GI50 (HCT-15 colon) 0.503 µM | GI50 (HOP-62 NSCLC) 0.718 µM | GI50 (HOP-92 NSCLC) 0.915 µM | GI50 (HS 578T breast) 5.9 µM | GI50 (LOX IMVI melanoma) 0.537 µM | GI50 (MCF7 breast) 1.07 µM | GI50 (MDA-MB-231 breast) 1.33 µM | GI50 (MOLT-4 leukemia) 0.798 µM | GI50 (NCI-H226 lung) 2.55 µM | GI50 (NCI-H23 lung) 1.16 µM | GI50 (OVCAR-4 ovarian) 2.89 µM | GI50 (OVCAR-5 ovarian) 8.88 µM | GI50 (OVCAR-8 ovarian) 0.776 µM | GI50 (PC-3 prostate) 0.988 µM | GI50 (RPMI-8226 leukemia) 1.84 µM | GI50 (RXF 393 renal) 1.1 µM | GI50 (SF-268 CNS) 0.813 µM | GI50 (SF-539 CNS) 0.655 µM | GI50 (SK-MEL-2 melanoma) 0.498 µM | GI50 (SK-MEL-28 melanoma) 3.12 µM | GI50 (SK-OV-3 ovarian) 0.966 µM | GI50 (SN12C renal) 1.47 µM | GI50 (SNB-19 CNS) 0.825 µM | GI50 (SNB-75 CNS) 0.542 µM | GI50 (SR leukemia) 0.437 µM | GI50 (T-47D breast) 0.783 µM | GI50 (TK-10 renal) 1.56 µM | GI50 (UACC-257 melanoma) 1.65 µM | GI50 (UACC-62 melanoma) 0.448 µM | GI50 (UO-31 renal) 0.523 µM
0.323 µM: TGI (MDA-MB-435)
1.72 µM: TGI (HT29 colon)
3 µM: TGI (OVCAR-3 ovarian)
> 75.1 µM: TGI (SNB-19 CNS)
18.1 µM: TGI (TK-10 renal)
27 µM: TGI (HOP-62 NSCLC)
active: GI50 (CAKI-1 renal) 0.291 µM | GI50 (HCT-116 colon) 0.363 µM | GI50 (HL-60(TB) leukemia) 0.343 µM | GI50 (HT29 colon) 0.324 µM | GI50 (IGROV1 ovarian) 0.308 µM | GI50 (K-562 leukemia) 0.232 µM | GI50 (KM12 colon) 0.413 µM | GI50 (M14 melanoma) 0.356 µM | GI50 (MALME-3M melanoma) 0.215 µM | GI50 (MDA-MB-435) 0.0804 µM | GI50 (NCI-H460 lung) 0.37 µM | GI50 (NCI-H522 lung) 0.211 µM | GI50 (NCI/ADR-RES ovarian) 0.28 µM | GI50 (OVCAR-3 ovarian) 0.297 µM | GI50 (SF-295 CNS) 0.305 µM | GI50 (SK-MEL-5 melanoma) 0.391 µM | GI50 (SW-620 colon) 0.367 µM | GI50 (U251 CNS) 0.415 µM
> 100 µM: TGI (ACHN renal) | TGI (CCRF-CEM leukemia) | TGI (HCC-2998 colon) | TGI (HCT-116 colon) | TGI (HCT-15 colon) | TGI (HL-60(TB) leukemia) | TGI (HS 578T breast) | TGI (K-562 leukemia) | TGI (LOX IMVI melanoma) | TGI (M14 melanoma) | TGI (MCF7 breast) | TGI (MOLT-4 leukemia) | TGI (NCI-H23 lung) | TGI (OVCAR-4 ovarian) | TGI (OVCAR-5 ovarian) | TGI (RPMI-8226 leukemia) | TGI (SF-268 CNS) | TGI (SK-MEL-28 melanoma) | TGI (SN12C renal) | TGI (SR leukemia) | TGI (UACC-62 melanoma)
> 37.9 µM: TGI (CAKI-1 renal)
23 µM: TGI (SK-OV-3 ovarian)
11.7 µM: TGI (SK-MEL-5 melanoma)
> 90.3 µM: TGI (UACC-257 melanoma)
46.6 µM: TGI (A498 renal)
9.05 µM: TGI (SF-539 CNS)
> 91.1 µM: TGI (786-0 renal)
> 44.1 µM: TGI (UO-31 renal)
86.2 µM: TGI (MDA-MB-231 breast)
> 66.7 µM: TGI (PC-3 prostate)
> 64.4 µM: TGI (A549 NSCLC)
14.1 µM: TGI (HOP-92 NSCLC)
77.2 µM: TGI (KM12 colon)
34.4 µM: TGI (DU-145 prostate)
> 66 µM: TGI (NCI-H226 lung)
> 27.5 µM: TGI (T-47D breast)
38.7 µM: TGI (BT-549 breast)
4.82 µM: TGI (SNB-75 CNS)
9.84 µM: TGI (RXF 393 renal)
> 40.5 µM: TGI (EKVX NSCLC)
6.98 µM: TGI (COLO 205 colon)
> 72.5 µM: TGI (SW-620 colon)
> 42.2 µM: TGI (NCI-H460 lung)
2.01 µM: TGI (NCI-H522 lung)
12.4 µM: TGI (NCI/ADR-RES ovarian)
22.9 µM: TGI (IGROV1 ovarian)
16.2 µM: TGI (MALME-3M melanoma) | TGI (U251 CNS)
6.09 µM: TGI (SF-295 CNS)
> 91.9 µM: TGI (OVCAR-8 ovarian)
